Data reported in PubChem BioAssay (NCI).
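Dose response: 5 concentrations. Exposure: 48 h. Format: 96-well plates. Endpoint: linear interpolation; highest concentration if not reached. Definition used: TGI = concentration required for complete inhibition of growth.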

Legend:
Experiment in all cases: NCI anticancer screen, dose series, 48 h
786-0 renal = tested on: 786-0 renal
A498 renal = tested on: A498 renal
A549 NSCLC = tested on: A549 NSCLC
ACHN renal = tested on: ACHN renal
CAKI-1 renal = tested on: CAKI-1 renal
CCRF-CEM leukemia = tested on: CCRF-CEM leukemia
COLO 205 colon = tested on: COLO 205 colon
DLD-1 colon = tested on: DLD-1 colon
DMS 114 small cell lung = tested on: DMS 114 small cell lung
DMS 273 small cell lung = tested on: DMS 273 small cell lung
EKVX NSCLC = tested on: EKVX NSCLC
HCC-2998 colon = tested on: HCC-2998 colon
HCT-116 colon = tested on: HCT-116 colon
HCT-15 colon = tested on: HCT-15 colon
HOP-62 NSCLC = tested on: HOP-62 NSCLC
HOP-92 NSCLC = tested on: HOP-92 NSCLC
HT29 colon = tested on: HT29 colon
IGROV1 ovarian = tested on: IGROV1 ovarian
K-562 leukemia = tested on: K-562 leukemia
KM12 colon = tested on: KM12 colon
KM20L2 colon = tested on: KM20L2 colon
LXFL 529 NSCLC = tested on: LXFL 529 NSCLC
M14 melanoma = tested on: M14 melanoma
M19-MEL melanoma = tested on: M19-MEL melanoma
MALME-3M melanoma = tested on: MALME-3M melanoma
MOLT-4 leukemia = tested on: MOLT-4 leukemia
NCI-H226 lung = tested on: NCI-H226 lung
NCI-H23 lung = tested on: NCI-H23 lung
NCI-H460 lung = tested on: NCI-H460 lung
NCI-H522 lung = tested on: NCI-H522 lung
OVCAR-3 ovarian = tested on: OVCAR-3 ovarian
OVCAR-4 ovarian = tested on: OVCAR-4 ovarian
OVCAR-5 ovarian = tested on: OVCAR-5 ovarian
OVCAR-8 ovarian = tested on: OVCAR-8 ovarian
RPMI-8226 leukemia = tested on: RPMI-8226 leukemia
RXF-631 renal = tested on: RXF-631 renal
SF-268 CNS = tested on: SF-268 CNS
SF-539 CNS = tested on: SF-539 CNS
SK-MEL-2 melanoma = tested on: SK-MEL-2 melanoma
SK-MEL-28 melanoma = tested on: SK-MEL-28 melanoma
SK-MEL-5 melanoma = tested on: SK-MEL-5 melanoma
SN12C renal = tested on: SN12C renal
SNB-19 CNS = tested on: SNB-19 CNS
SNB-75 CNS = tested on: SNB-75 CNS
SNB-78 CNS = tested on: SNB-78 CNS
SR leukemia = tested on: SR leukemia
SW-620 colon = tested on: SW-620 colon
U251 CNS = tested on: U251 CNS
UACC-257 melanoma = tested on: UACC-257 melanoma
UACC-62 melanoma = tested on: UACC-62 melanoma
UO-31 renal = tested on: UO-31 renal
XF 498 CNS = tested on: XF 498 CNS
HL-60(TB) leukemia = tested on: HL-60(TB) leukemia
HOP-18 NSCLC = tested on: HOP-18 NSCLC
LOX IMVI melanoma = tested on: LOX IMVI melanoma
RXF 393 renal = tested on: RXF 393 renal
SF-295 CNS = tested on: SF-295 CNS
SK-OV-3 ovarian = tested on: SK-OV-3 ovarian
TK-10 renal = tested on: TK-10 renal

## CCOC(=O)C(=O)Nc1nc2c(s1)C(=O)c1ccccc1C2=O
786-0 renal
  TGI: 31.2 µM
A498 renal
  TGI: 33.2 µM
A549 NSCLC
  TGI: 34.4 µM
ACHN renal
  TGI: 28.1 µM
CAKI-1 renal
  TGI: 33.5 µM
CCRF-CEM leukemia
  TGI: 69.8 µM
COLO 205 colon
  TGI: 56.4 µM
DLD-1 colon
  TGI: 31.8 µM
DMS 114 small cell lung
  TGI: 17.6 µM
DMS 273 small cell lung
  TGI: 40.6 µM
EKVX NSCLC
  TGI: 29.6 µM
HCC-2998 colon
  TGI: 31.6 µM
HCT-116 colon
  TGI: 27.7 µM
HCT-15 colon
  TGI: 29.6 µM
HOP-62 NSCLC
  TGI: 33.5 µM
HOP-92 NSCLC
  TGI: 25.3 µM
HT29 colon
  TGI: 27.4 µM
IGROV1 ovarian
  TGI: 37.6 µM
K-562 leukemia
  TGI: 33.3 µM
KM12 colon
  TGI: 30.6 µM
KM20L2 colon
  TGI: 40.7 µM
LXFL 529 NSCLC
  TGI: 26.2 µM
M14 melanoma
  TGI: 32.7 µM
M19-MEL melanoma
  TGI: 7.45 µM
MALME-3M melanoma
  TGI: 25.8 µM
MOLT-4 leukemia
  TGI: 18.9 µM
NCI-H226 lung
  TGI: 34.4 µM
NCI-H23 lung
  TGI: 27.6 µM
NCI-H460 lung
  TGI: 45.8 µM
NCI-H522 lung
  TGI: 29.3 µM
OVCAR-3 ovarian
  TGI: 18.6 µM
OVCAR-4 ovarian
  TGI: 31.5 µM
OVCAR-5 ovarian
  TGI: 42.5 µM
OVCAR-8 ovarian
  TGI: 47.5 µM
RPMI-8226 leukemia
  TGI: 48.2 µM
RXF-631 renal
  TGI: 27.8 µM
SF-268 CNS
  TGI: 27.3 µM
SF-539 CNS
  TGI: 31.5 µM
SK-MEL-2 melanoma
  TGI: 31.7 µM
SK-MEL-28 melanoma
  TGI: 27.6 µM
SK-MEL-5 melanoma
  TGI: 33.7 µM
SN12C renal
  TGI: 30.1 µM
SNB-19 CNS
  TGI: 31.9 µM
SNB-75 CNS
  TGI: 30.2 µM
SNB-78 CNS
  TGI: 24.8 µM
SR leukemia
  TGI: 23.4 µM
SW-620 colon
  TGI: 27.7 µM
U251 CNS
  TGI: 31 µM
UACC-257 melanoma
  TGI: 31.4 µM
UACC-62 melanoma
  TGI: 34.4 µM
UO-31 renal
  TGI: 28 µM
XF 498 CNS
  TGI: 26.9 µM

## O=C(c1ccc(Cl)cc1)c1ccc(OCC(=O)N2CCN(c3ccccc3)CC2)cc1
786-0 renal
  TGI: > 100 µM
A498 renal
  TGI: 78.9 µM
A549 NSCLC
  TGI: > 100 µM
ACHN renal
  TGI: > 100 µM
CAKI-1 renal
  TGI: > 100 µM
CCRF-CEM leukemia
  TGI: > 100 µM
COLO 205 colon
  TGI: > 100 µM
DLD-1 colon
  TGI: > 100 µM
DMS 114 small cell lung
  TGI: > 100 µM
EKVX NSCLC
  TGI: > 100 µM
HCC-2998 colon
  TGI: > 100 µM
HCT-116 colon
  TGI: > 100 µM
HCT-15 colon
  TGI: > 100 µM
HL-60(TB) leukemia
  TGI: > 100 µM
HOP-18 NSCLC
  TGI: > 100 µM
HOP-62 NSCLC
  TGI: > 100 µM
HOP-92 NSCLC
  TGI: > 100 µM
HT29 colon
  TGI: > 100 µM
IGROV1 ovarian
  TGI: > 100 µM
K-562 leukemia
  TGI: > 100 µM
KM12 colon
  TGI: > 100 µM
KM20L2 colon
  TGI: > 100 µM
LOX IMVI melanoma
  TGI: > 100 µM
LXFL 529 NSCLC
  TGI: > 100 µM
M14 melanoma
  TGI: > 100 µM
M19-MEL melanoma
  TGI: > 100 µM
MALME-3M melanoma
  TGI: > 100 µM
MOLT-4 leukemia
  TGI: > 100 µM
NCI-H226 lung
  TGI: > 100 µM
NCI-H23 lung
  TGI: > 100 µM
NCI-H460 lung
  TGI: > 100 µM
OVCAR-3 ovarian
  TGI: > 100 µM
OVCAR-4 ovarian
  TGI: > 100 µM
OVCAR-5 ovarian
  TGI: > 100 µM
OVCAR-8 ovarian
  TGI: > 100 µM
RPMI-8226 leukemia
  TGI: > 100 µM
RXF 393 renal
  TGI: > 100 µM
SF-268 CNS
  TGI: > 100 µM
SF-295 CNS
  TGI: > 100 µM
SF-539 CNS
  TGI: > 100 µM
SK-MEL-2 melanoma
  TGI: > 100 µM
SK-MEL-28 melanoma
  TGI: > 100 µM
SK-MEL-5 melanoma
  TGI: > 100 µM
SK-OV-3 ovarian
  TGI: > 100 µM
SN12C renal
  TGI: > 100 µM
SNB-19 CNS
  TGI: > 100 µM
SNB-75 CNS
  TGI: > 100 µM
SNB-78 CNS
  TGI: > 100 µM
SR leukemia
  TGI: > 100 µM
SW-620 colon
  TGI: > 100 µM
TK-10 renal
  TGI: > 100 µM
U251 CNS
  TGI: > 100 µM
UACC-257 melanoma
  TGI: > 100 µM
UACC-62 melanoma
  TGI: > 100 µM
UO-31 renal
  TGI: > 100 µM
XF 498 CNS
  TGI: > 100 µM
